Experimental data from ChEMBL document CHEMBL1201862, “PubChem BioAssay data set” (2004).
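Protocol summary: plate cells (96-well), add compound at 5 concentrations, incubate 48 h, interpolate endpoints linearly. GI50: concentration for 50% inhibition of growth.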 Active and inactive are the calls of the source. Rule as the data show it: active = GI50 up to about 1.1 µM and inactive = higher.

Key:
Assay in all cases: NCI anticancer screen, dose series, 48 h
CAKI-1 = test system: CAKI-1
CCRF-CEM = test system: CCRF-CEM
HOP-62 = test system: HOP-62
HOP-92 = test system: HOP-92
IGROV-1 = test system: IGROV-1
K562 = test system: K562
KM12 = test system: KM12
M14 = test system: M14
MCF7 = test system: MCF7
MDA-N = test system: MDA-N
NCI/ADR-RES = test system: NCI/ADR-RES
OVCAR-3 = test system: OVCAR-3
OVCAR-4 = test system: OVCAR-4
PC-3 = test system: PC-3
SF-295 = test system: SF-295
SK-MEL-28 = test system: SK-MEL-28
TK-10 = test system: TK-10
U-251 = test system: U-251
UO-31 = test system: UO-31
KM-20L2 = test system: KM-20L2

SMILES	GI50 (CAKI-1)	GI50 (CCRF-CEM)	GI50 (HOP-62)	GI50 (HOP-92)	GI50 (IGROV-1)	GI50 (K562)	GI50 (KM12)	GI50 (M14)	GI50 (MCF7)	GI50 (MDA-N)	GI50 (NCI/ADR-RES)	GI50 (OVCAR-3)	GI50 (OVCAR-4)	GI50 (PC-3)	GI50 (SF-295)	GI50 (SK-MEL-28)	GI50 (TK-10)	GI50 (U-251)	GI50 (UO-31)	GI50 (KM-20L2)
CSc1cccc(NC(=O)OC2CCCCCCCCCCC2)c1	17.6 µM (inactive)	16.4 µM (inactive)	18.8 µM (inactive)	27.4 µM (inactive)	33.4 µM (inactive)	16.4 µM (inactive)	13.3 µM (inactive)	22.3 µM (inactive)	20.6 µM (inactive)	21 µM (inactive)	21.4 µM (inactive)	10.5 µM (inactive)	10.4 µM (inactive)	31 µM (inactive)	11.9 µM (inactive)	39.7 µM (inactive)	26.9 µM (inactive)	18.8 µM (inactive)	7.91 µM (inactive)	
Cn1c(=O)c2c(ncn2CN2CCN(Cn3cnc4c3c(=O)n(C)c(=O)n4C)CC2)n(C)c1=O	77.3 µM (inactive)	21.9 µM (inactive)	> 100 µM (inactive)	52 µM (inactive)	78.5 µM (inactive)	31.7 µM (inactive)	92.5 µM (inactive)	38.5 µM (inactive)	16.9 µM (inactive)	50.2 µM (inactive)	> 100 µM (inactive)	> 100 µM (inactive)	> 100 µM (inactive)	53.5 µM (inactive)	> 100 µM (inactive)	48.1 µM (inactive)	21.5 µM (inactive)	> 100 µM (inactive)	46.1 µM (inactive)	
CCOC(=O)C(c1ccsc1)P(=O)(OCC)OCC (centres undefined)	14.1 µM (inactive)		28.1 µM (inactive)	24.3 µM (inactive)			13.4 µM (inactive)	12.9 µM (inactive)				13.7 µM (inactive)	28.7 µM (inactive)		17.3 µM (inactive)	15.1 µM (inactive)	25.4 µM (inactive)	17.9 µM (inactive)	15 µM (inactive)	14.5 µM (inactive)
COC(=O)C1C(=O)N(C)C(=O)N2CCCC12 (centres undefined)	> 100 µM (inactive)	> 100 µM (inactive)	> 100 µM (inactive)	> 100 µM (inactive)	> 100 µM (inactive)	> 100 µM (inactive)	> 100 µM (inactive)	> 100 µM (inactive)	> 100 µM (inactive)	> 100 µM (inactive)	> 100 µM (inactive)	> 100 µM (inactive)	> 100 µM (inactive)	> 100 µM (inactive)	> 100 µM (inactive)	1.4 µM (inactive)	> 100 µM (inactive)	> 100 µM (inactive)	> 100 µM (inactive)	
COC(=O)/C(=N\NC(N)=O)C(C#N)c1ccccc1 (centres undefined)		> 100 µM (inactive)	> 100 µM (inactive)			> 100 µM (inactive)	> 100 µM (inactive)	> 100 µM (inactive)				> 100 µM (inactive)	> 100 µM (inactive)		> 100 µM (inactive)	> 100 µM (inactive)	> 100 µM (inactive)	> 100 µM (inactive)	> 100 µM (inactive)	> 100 µM (inactive)
Cc1c2ccccc2cc2ccc3oc([N+](=O)[O-])cc3c12	> 100 µM (inactive)	> 100 µM (inactive)	> 100 µM (inactive)	> 100 µM (inactive)	> 100 µM (inactive)	> 100 µM (inactive)	> 100 µM (inactive)	4.46 µM (inactive)				> 100 µM (inactive)	> 100 µM (inactive)		> 100 µM (inactive)		> 100 µM (inactive)	> 100 µM (inactive)	> 100 µM (inactive)	> 100 µM (inactive)
Nc1cc2c(c3ccccc13)C(CCl)CN2C(=O)c1cc2cc(NC(=O)Nc3ccc4[nH]c(C(=O)N5CC(CCl)c6c5cc(N)c5ccccc65)cc4c3)ccc2[nH]1 (centres undefined)	< 0.01 µM (active)	< 0.01 µM (active)	0.0568 µM (active)	2.19 µM (inactive)	0.256 µM (active)	0.367 µM (active)	1.08 µM (active)	< 0.0303 µM (active)	0.0284 µM (active)	0.292 µM (active)	1.31 µM (inactive)	0.467 µM (active)	1.79 µM (inactive)	0.171 µM (active)	0.0404 µM (active)	0.659 µM (active)	1.42 µM (inactive)	0.0573 µM (active)	0.0559 µM (active)	
COc1ccc2c(-c3csc(-c4c[nH]c5ccc(Br)cc45)n3)c[nH]c2c1	85.7 µM (inactive)	27.7 µM (inactive)	62.4 µM (inactive)	64.3 µM (inactive)	81.5 µM (inactive)	15.2 µM (inactive)	43.6 µM (inactive)	> 100 µM (inactive)	54.1 µM (inactive)	8.26 µM (inactive)	90.6 µM (inactive)	> 100 µM (inactive)	70.5 µM (inactive)	10.4 µM (inactive)	73.5 µM (inactive)	> 100 µM (inactive)	49 µM (inactive)	25.1 µM (inactive)	> 100 µM (inactive)	
COc1ccc(/C=C2\N=C(c3ccccc3)OC2=O)c(OCc2ccccc2)c1	85.1 µM (inactive)	14.3 µM (inactive)	20.5 µM (inactive)		18.8 µM (inactive)	32.1 µM (inactive)	33 µM (inactive)	49.7 µM (inactive)				19 µM (inactive)	22.1 µM (inactive)		17.9 µM (inactive)	> 100 µM (inactive)			> 100 µM (inactive)	> 100 µM (inactive)
O/N=C1\CCCCC1C(NO)c1ccccc1 (centres undefined)		> 100 µM (inactive)	> 100 µM (inactive)	42.7 µM (inactive)	> 100 µM (inactive)	> 100 µM (inactive)	> 100 µM (inactive)	> 100 µM (inactive)				> 100 µM (inactive)	> 100 µM (inactive)		> 100 µM (inactive)	> 100 µM (inactive)	> 100 µM (inactive)	> 100 µM (inactive)	89.5 µM (inactive)	> 100 µM (inactive)
Clc1ccc2c(NCCCCN3OC3c3ccccc3)ccnc2c1 (centres undefined)	8.77 µM (inactive)	2.15 µM (inactive)	4.75 µM (inactive)	10.5 µM (inactive)	9.27 µM (inactive)	2.44 µM (inactive)	7.5 µM (inactive)	3.23 µM (inactive)	4.29 µM (inactive)	5.42 µM (inactive)	18.5 µM (inactive)	4.45 µM (inactive)	4.27 µM (inactive)	13.3 µM (inactive)	12.2 µM (inactive)	3.64 µM (inactive)	10.3 µM (inactive)	3.4 µM (inactive)	14.8 µM (inactive)	
CCOC(=O)/C=C(\C(=O)OCC)n1ccc(=O)n(CC(=O)OCC)c1=O	0.638 µM (active)	0.592 µM (active)	20.7 µM (inactive)	1.45 µM (inactive)	6.82 µM (inactive)	1.68 µM (inactive)	15.1 µM (inactive)	2.09 µM (inactive)	3.16 µM (inactive)	5.96 µM (inactive)	9.57 µM (inactive)	3.96 µM (inactive)	3.66 µM (inactive)	4.74 µM (inactive)	17.9 µM (inactive)	6.25 µM (inactive)	2.57 µM (inactive)	6.25 µM (inactive)	6.73 µM (inactive)	
C=C1c2nc3ccccc3n2C=C(c2ccc(Cl)cc2)N1c1ccc(OCCN2CCCCC2)cc1	> 45 µM (inactive)	> 45 µM (inactive)	> 45 µM (inactive)	> 45 µM (inactive)	> 45 µM (inactive)	> 45 µM (inactive)	> 45 µM (inactive)	> 45 µM (inactive)	> 45 µM (inactive)	6.32 µM (inactive)	> 45 µM (inactive)	> 45 µM (inactive)	> 45 µM (inactive)	> 45 µM (inactive)	> 45 µM (inactive)	> 45 µM (inactive)	> 45 µM (inactive)	> 45 µM (inactive)	> 45 µM (inactive)	
O=C(/C=C/c1ccc(O)c(O)c1)OC1C[C@@](O)(C(=O)O)C[C@@H](O)[C@H]1OC(=O)/C=C/c1ccc(O)c(O)c1 (some centres undefined)		> 100 µM (inactive)	> 100 µM (inactive)	> 100 µM (inactive)	> 100 µM (inactive)	> 100 µM (inactive)	> 100 µM (inactive)	> 100 µM (inactive)				> 100 µM (inactive)	> 100 µM (inactive)		> 100 µM (inactive)	> 100 µM (inactive)	> 100 µM (inactive)	> 100 µM (inactive)	> 100 µM (inactive)	37.1 µM (inactive)
C=C1C/C(=C/C)C(=O)O[C@@H]2CCN3CC=C(COC(=O)[C@]1(C)O)[C@H]23 [SENECIPHYLLINE]	> 100 µM (inactive)	> 100 µM (inactive)	> 100 µM (inactive)	> 100 µM (inactive)	> 100 µM (inactive)	> 100 µM (inactive)	> 100 µM (inactive)	> 100 µM (inactive)	> 100 µM (inactive)	> 100 µM (inactive)	> 100 µM (inactive)	> 100 µM (inactive)	> 100 µM (inactive)	> 100 µM (inactive)	> 100 µM (inactive)	> 100 µM (inactive)	> 100 µM (inactive)	> 100 µM (inactive)	> 100 µM (inactive)	
Cc1c([C@H](C)[C@@H]2NC[C@@H](C)C[C@H]2O)ccc2c1C[C@H]1[C@H]2CC=C2C[C@@H](O)CC[C@@]21C [VERATRAMINE]	26.6 µM (inactive)	16.1 µM (inactive)	23.4 µM (inactive)	2.07 µM (inactive)	16.1 µM (inactive)	12.1 µM (inactive)	14.5 µM (inactive)	15.7 µM (inactive)	15.4 µM (inactive)	15.7 µM (inactive)	23.4 µM (inactive)	15.6 µM (inactive)	12.6 µM (inactive)	11.5 µM (inactive)	12.4 µM (inactive)	17.3 µM (inactive)	24.4 µM (inactive)	14 µM (inactive)	14 µM (inactive)	
